According to the supplement of paper PMC5908809:

Columns and labels:
[1] = tested on: normal NK cells expanded with K562-aAPC; test: drug sensitivity score (DSS) (DSS units); higher = more sensitive; extreme values may be limits of the assay; details: 72 h; IL-2 2.5 ng/mL
Method: (§1)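 Drug sensitivity and resistance testing on K562-aAPC-expanded normal NK cells: 5 concentrations (10-fold steps over a 10,000-fold range), 72 h at 37 °C, viability by CellTiter-Glo normalised to DMSO and benzethonium chloride controls; DSS from the fitted curve.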

NK-YS (IL-2 2.5 ng/mL) [2] = test: as above; details: 72 h
[3] = tested on: normal primary NK cells, pool 1 (3 donors), resting (IL-2 0 ng/mL); test: as above; details: 72 h
DERL-7 (IL-2 2.5 ng/mL) [4] = test: as above; details: 72 h
NKL (IL-2 2.5 ng/mL) [5] = test: as above; details: 72 h
KHYG-1 (IL-2 2.5 ng/mL) [6] = test: as above; details: 72 h
KAI3 (IL-2 2.5 ng/mL) [7] = test: as above; details: 72 h
YT (IL-2 2.5 ng/mL) [8] = test: as above; details: 72 h
SNK-6 (IL-2 2.5 ng/mL) [9] = test: as above; details: 72 h
[10] = tested on: normal primary NK cells, pool 1 (3 donors) (IL-2 2.5 ng/mL); test: as above; details: 72 h
NK-92 (IL-2 2.5 ng/mL) [11] = test: as above; details: 72 h
[12] = tested on: normal primary NK cells, pool 2 (3 donors) (IL-2 2.5 ng/mL); test: as above; details: 72 h
IMC-1 (IL-2 20 ng/mL) [13] = test: as above; details: 72 h
[14] = tested on: normal primary NK cells, pool 3 (3 donors) (IL-2 2.5 ng/mL); test: as above; details: 72 h
[15] = tested on: normal NK cells expanded with K562-aAPC; test: percent inhibition of viability; higher = more inhibition; details: 72 h, IL-2 2.5 ng/mL
Method: as §1

NK-YS (IL-2 2.5 ng/mL) [16] = test: as above; details: 72 h
[17] = tested on: normal primary NK cells, pool 1 (3 donors), resting (IL-2 0 ng/mL); test: as above; details: 72 h
DERL-7 (IL-2 2.5 ng/mL) [18] = test: as above; details: 72 h
NKL (IL-2 2.5 ng/mL) [19] = test: as above; details: 72 h
KHYG-1 (IL-2 2.5 ng/mL) [20] = test: as above; details: 72 h
KAI3 (IL-2 2.5 ng/mL) [21] = test: as above; details: 72 h
YT (IL-2 2.5 ng/mL) [22] = test: as above; details: 72 h
SNK-6 (IL-2 2.5 ng/mL) [23] = test: as above; details: 72 h
[24] = tested on: normal primary NK cells, pool 1 (3 donors) (IL-2 2.5 ng/mL); test: as above; details: 72 h
NK-92 (IL-2 2.5 ng/mL) [25] = test: as above; details: 72 h
[26] = tested on: normal primary NK cells, pool 2 (3 donors) (IL-2 2.5 ng/mL); test: as above; details: 72 h
IMC-1 (IL-2 20 ng/mL) [27] = test: as above; details: 72 h
[28] = tested on: normal primary NK cells, pool 3 (3 donors) (IL-2 2.5 ng/mL); test: as above; details: 72 h

CN(Cc1cnc2nc(N)nc(N)c2n1)c1ccc(C(=O)N[C@@H](CCC(=O)O)C(=O)O)cc1 [Methotrexate] (max concentration tested 5000 nM)
Details | drug sensitivity score
DERL-7 (IL-2 2.5 ng/mL) [4] | 7.89
IMC-1 (IL-2 20 ng/mL) [13] | 26.7
KAI3 (IL-2 2.5 ng/mL) [7] | 25.6
KHYG-1 (IL-2 2.5 ng/mL) [6] | 29.8
NK-92 (IL-2 2.5 ng/mL) [11] | 24.3
NK-YS (IL-2 2.5 ng/mL) [2] | 27.5
NKL (IL-2 2.5 ng/mL) [5] | 16.1
SNK-6 (IL-2 2.5 ng/mL) [9] | 27.2
YT (IL-2 2.5 ng/mL) [8] | 20.5
[1] | 5.62
[3] | 1.25
[10] | 0
[12] | 0.89
[14] | 0.89

percent inhibition of viability [%]
Details | 0.5 nM | 5 nM | 50 nM | 500 nM | 5000 nM
DERL-7 (IL-2 2.5 ng/mL) [18] | 1.41 | 1.81 | -8.11 | 43.7 | 51.8
IMC-1 (IL-2 20 ng/mL) [27] | -3.79 | 5.79 | 72.9 | 95.6 | 97.3
KAI3 (IL-2 2.5 ng/mL) [21] | 2.61 | 9.06 | 73.1 | 86.4 | 80.6
KHYG-1 (IL-2 2.5 ng/mL) [20] | 1.68 | 0.21 | 95.2 | 104 | 99.2
NK-92 (IL-2 2.5 ng/mL) [25] | -11.1 | 6.17 | 69.3 | 84 | 80.7
NK-YS (IL-2 2.5 ng/mL) [16] | 7.63 | 4.28 | 83.5 | 93 | 87.1
NKL (IL-2 2.5 ng/mL) [19] | -5.39 | -6.27 | 40.4 | 61.1 | 58.2
SNK-6 (IL-2 2.5 ng/mL) [23] | 2.63 | 21 | 76.8 | 81.2 | 82.7
YT (IL-2 2.5 ng/mL) [22] | 5.17 | 3.44 | 63.8 | 54.4 | 48.9
[15] | -3.65 | -3.48 | -3.07 | 34 | 31.4
[17] | -7.95 | -0.85 | 11.4 | 8.67 | 18.2
[24] | -2.85 | -7.99 | 1.44 | -1.93 | -0.84
[26] | -8.41 | -4.79 | -9.59 | -5.9 | -3.72
[28] | -11.3 | -6.43 | -11.2 | -2.82 | -3.84

Nc1ccccc1NC(=O)c1ccc(CNc2nccc(-c3cccnc3)n2)cc1 [Mocetinostat] (max concentration tested 10000 nM)
Details | drug sensitivity score
DERL-7 (IL-2 2.5 ng/mL) [4] | 17
IMC-1 (IL-2 20 ng/mL) [13] | 18.4
KAI3 (IL-2 2.5 ng/mL) [7] | 17.2
KHYG-1 (IL-2 2.5 ng/mL) [6] | 17.6
NK-92 (IL-2 2.5 ng/mL) [11] | 19.3
NK-YS (IL-2 2.5 ng/mL) [2] | 13.7
NKL (IL-2 2.5 ng/mL) [5] | 21.4
SNK-6 (IL-2 2.5 ng/mL) [9] | 19.4
YT (IL-2 2.5 ng/mL) [8] | 11.6
[1] | 14.8
[3] | 14.3
[10] | 11.4
[12] | 12.9
[14] | 12.2

percent inhibition of viability [%]
Details | 1 nM | 10 nM | 100 nM | 1000 nM | 10000 nM
DERL-7 (IL-2 2.5 ng/mL) [18] | -3.82 | -7.01 | -13.8 | 99.3 | 101
IMC-1 (IL-2 20 ng/mL) [27] | -6.53 | -6.19 | 4.71 | 98.2 | 101
KAI3 (IL-2 2.5 ng/mL) [21] | -5.2 | 1.15 | 22.6 | 77.3 | 104
KHYG-1 (IL-2 2.5 ng/mL) [20] | -6.09 | -6.23 | -4.57 | 100 | 105
NK-92 (IL-2 2.5 ng/mL) [25] | -18.8 | -10.3 | 8.7 | 99.6 | 105
NK-YS (IL-2 2.5 ng/mL) [16] | -9.56 | -10.2 | -10.2 | 71.5 | 102
NKL (IL-2 2.5 ng/mL) [19] | -8.5 | -7.5 | 22.2 | 98.2 | 106
SNK-6 (IL-2 2.5 ng/mL) [23] | -6.1 | -9.13 | 11.2 | 96.4 | 100
YT (IL-2 2.5 ng/mL) [22] | -3.42 | -2.92 | 3.45 | 48.2 | 104
[15] | -2.73 | -8.59 | -12.3 | 81.4 | 100
[17] | 6.94 | 10 | 2.89 | 76.2 | 88.4
[24] | 0.77 | 13.7 | 15.1 | 47 | 90.7
[26] | -2.61 | -1 | -6.41 | 66.8 | 94.1
[28] | -0.12 | -0.69 | 5.62 | 57.3 | 94.5
